Results reported in US11167162B2 (priority 2017, dated 2021).
“And” between values parts separate entries of the source, which are not always exact repeats. Identical values can stand only once.

Tested on: Fecal coliforms
Format: cell-based

**Q.** With `CC(=O)OO` [A, peroxyacetic acid] as the compound, how does the Category read?
**A.** The Category was >1000 and <1000.
